Laboratory results from patent US7745636B2, “Hepatitis C virus inhibitors” (Bristol-Myers Squibb Company, priority 2006, dated 2010).
Read-outs that look alike come from different tables or passages of the source.

Tested on: HCV 1b-377-neo replicon cells
Experiment: HCV Replicon assay, HCV 1b-377-neo replicon cells
Type: cell-based, HCV 1b genotype
Description: An HCV Replicon assay was utilized in the present disclosure, and was prepared, conducted and validated as described in commonly owned PCT/US2006/022197 and in O'Boyle et. al. Antimicrob Agents Chemother. 2005 April; 49(4):1346-53.
HCV 1b-377-neo replicon cells were used to test the currently described compound series as well as cells resistant to compound A due to a Y2065H mutation in NS5A (described in application PCT/US2006/022197). The compounds tested were determined to have more than 10-fold less inhibitory activity on cells resistant to compound A than wild-type cells indicating a related mechanism of action between the two compound series. Thus, the compounds of the present disclosure can be effective to inhibit the function of the HCV NS5A protein and are understood to be as effective in combinations as previously described in application PCT/US2006/022197 and commonly owned WO/O4014852. Further, the compounds of the present disclosure can be effective against the HCV 1b genotype. It should also be understood that the compounds of the present disclosure can inhibit multiple genotypes of HCV. […] In one embodiment compounds of the present disclosure are active against the 1a, 1b, 2a, 2b, 3a, 4a, and 5a genotypes.

[1] = Hepatitis C virus, Table 2, read-out: Range (EC50 against HCV 1b)

## CN(C)[C@@H](C(=O)N1CCC[C@H]1c1nc(-c2ccc(-c3ccc(-c4cn(C)c([C@@H]5CCCN5C(=O)[C@@H](c5ccccc5)N(C)C)n4)cc3)cc2)cn1C)c1ccccc1 (single isomer, unassigned) [Example 151 isomer 1]
Table 2, listed as 151 isomer 1, read-out: Range (EC50 against HCV 1b)
  EC50: 1 to 99 nM

## CN(C)[C@@H](C(=O)N1CCC[C@H]1c1nc(-c2ccc(-c3ccc(-c4cn(C)c([C@@H]5CCCN5C(=O)[C@@H](c5ccccc5)N(C)C)n4)cc3)cc2)cn1C)c1ccccc1 (single isomer, unassigned) [Example 151 isomer 2]
Table 2, listed as 151 isomer 2, read-out: Range (EC50 against HCV 1b)
  EC50: 100 to 999 nM

## CCN(CC)C(C)C(=O)N1CCC[C@H]1c1nc(C(F)(F)F)c(-c2ccc(-c3ncc(-c4cnc([C@@H]5CCCN5C(=O)[C@@H](C)N(CC)CC)[nH]4)cn3)cc2)[nH]1 (stereo in doubt) [Example J51, (2R)-1-((2S)-2-(5-(4-(5-(2-((2S)-1-((2R)-2-(diethylamino)propanoyl)-2-pyrrolidinyl)-1H-imidazol-5-yl)-2-pyrimidinyl)phenyl)-4-(trifluoromethyl)-1H-imidazol-2-yl)-1-pyrrolidinyl)-N,N-diethyl-1-oxo-2-propanamine]
[1]
  EC50: 1 to 99 nM

## CN(C)[C@@H](C(=O)N1CCC[C@H]1c1ncc(-c2ccc(-c3ccc(-c4cnc([C@@H]5CCCN5C(=O)[C@@H](c5ccccc5)N(C)C)[nH]4)cc3)cc2)[nH]1)c1ccccc1 [Example 1, (1R,1′R)-2,2′-(4,4′-biphenyldiylbis(1H-imidazole-5,2-diyl(2S)-2,1-pyrrolidinediyl))bis(N,N-dimethyl-2-oxo-1-phenylethanamine)]
[1]
  EC50: 0.001 to 0.999 nM

## CC(C)[C@H](NC(=O)OC(C)(C)C)c1ncc(-c2ccc(-c3ccc(-c4cnc([C@@H](NC(=O)OC(C)(C)C)C(C)C)[nH]4)cc3)cc2)[nH]1 [Example 3]
Table 2, read-out: Range (EC50 against HCV 1b)
  EC50: 0.001 to 0.999 nM

## COC(=O)N[C@@H](C(=O)N(C)[C@@H](C)c1ncc(-c2ccc(-c3ccc(-c4cnc([C@H](C)N(C)C(=O)[C@H](NC(=O)OC)c5ccccc5)[nH]4)cc3)cc2)[nH]1)c1ccccc1 [Example 24-18-1, dimethyl (4,4′-biphenyldiylbis (1H-imidazole-5,2-diyl(1S)-1,1-ethanediyl(methyl-imino)((1R)-2-oxo-1-phenyl-2,1-ethanediyl))) biscarbamate]
[1]
  EC50: 0.001 to 0.999 nM

## C[C@@H](c1ncc(-c2ccc(-c3ccc(-c4cnc([C@H](C)N(C)C(=O)[C@@H](c5ccccc5)N(C)C)[nH]4)cc3)cc2)[nH]1)N(C)C(=O)[C@@H](c1ccccc1)N(C)C [Example 24-18-2, (2R,2′R)-N,N′-(4,4′-biphenyldiylbis (1H-imidazole-5,2-diyl(1S)-1,1-ethanediyl))bis(2-(dimethylamino)-N-methyl-2-phenylacetamide)]
[1]
  EC50: 0.001 to 0.999 nM

## C[C@@H](c1ncc(-c2ccc(-c3ccc(-c4cnc([C@H](C)N(C)C(=O)[C@@H](c5ccccc5)N5CCCCC5)[nH]4)cc3)cc2)[nH]1)N(C)C(=O)[C@@H](c1ccccc1)N1CCCCC1 [Example 24-18-3, (2R,2′R)-N,N′-(4,4′-biphenyldiylbis (1H-imidazol-5,2-diyl(1S)-1,1-ethanediyl))bis(N-methyl-2-phenyl-2-(1-piperidinyl)acetamide)]
[1]
  EC50: 0.001 to 0.999 nM

## COC(=O)N[C@@H](C(=O)N(C)[C@@H](C)c1ncc(-c2ccc(-c3ccc(-c4cnc([C@@H]5CCCN5C(=O)[C@H](NC(=O)OC)c5ccccc5)[nH]4)cc3)cc2)[nH]1)c1ccccc1 [Example 24-18-4, methyl ((1R)-2-((2S)-2-(5-(4′-(2-((1S)-1-(((2R)-2-((methoxycarbonyl)amino)-2-phenylacetyl) (methyl)amino)ethyl)-1H-imidazol-5-yl)-4-biphenylyl)-1H-imidazol-2-yl)-1-pyrrolidinyl)-2-oxo-1-phenylethyl) carbamate]
[1]
  EC50: 0.001 to 0.999 nM

## C[C@@H](c1ncc(-c2ccc(-c3ccc(-c4cnc([C@@H]5CCCN5C(=O)[C@@H](c5ccccc5)N(C)C)[nH]4)cc3)cc2)[nH]1)N(C)C(=O)[C@@H](c1ccccc1)N(C)C [Example 24-18-5, (2R)-2-(dimethylamino)-N-((1S)-1-(5-(4′-(2-((2S)-1-((2R)-2-(dimethylamino)-2-phenylacetyl)-2-pyrrolidinyl)-1H-imidazol-5-yl)-4-biphenylyl)-1H-imidazol-2-yl)ethyl)-N-methyl-2-phenylacetamide]
[1]
  EC50: 0.001 to 0.999 nM

## COC(=O)N[C@@H](C(=O)N1CCC[C@H]1c1ncc(-c2ccc(-c3ccc(-c4cnc([C@@H]5CCCN5C(=O)Cc5ccccc5)[nH]4)cc3)cc2)[nH]1)c1ccccc1 [Example 28, methyl((1R)-2-oxo-1-phenyl-2-((2S)-2-(5-(4′-(2-((2S)-1-(phenylacetyl)-2-pyrrolidinyl)-1H-imidazol-5-yl)-4-biphenylyl)-1H-imidazol-2-yl)-1-pyrrolidinyl)ethyl)carbamate]
[1]
  EC50: 1 to 99 nM

## Cc1cc(-c2cnc([C@@H]3CCCN3C(=O)[C@@H](c3ccccc3)N(C)C)[nH]2)ccc1-c1ccc(-c2cnc([C@@H]3CCCN3C(=O)[C@@H](c3ccccc3)N(C)C)[nH]2)cc1C [Example 121, (1R,1′R)-2,2′-((2,2′-dimethyl-4,4′-biphenyldiyl)bis(1H-imidazole-5,2-diyl(2S)-2,1-pyrrolidinediyl))bis(N,N-dimethyl-2-oxo-1-phenylethanamine)]
[1]
  EC50: 0.001 to 0.999 nM

## COC(=O)N[C@@H](C(=O)N1CCC[C@H]1c1ncc(-c2ccc(-c3ccc(-c4cnc([C@@H]5CCCN5C(=O)[C@@H](c5ccccc5)N(C)C)[nH]4)cc3C)cc2)[nH]1)c1ccccc1 [Example 126, methyl ((1R)-2-((2S)-2-(5-(4′-(2-((2S)-1-((2R)-2-(dimethylamino)-2-phenylacetyl)-2-pyrrolidinyl)-1H-imidazol-5-yl)-2′-methyl-4-biphenylyl)-1H-imidazol-2-yl)-1-pyrrolidinyl)-2-oxo-1-phenylethyl)carbamate]
[1]
  EC50: 0.001 to 0.999 nM

## COC(=O)N[C@@H](C(=O)N1CCC[C@H]1c1ncc(-c2ccc(-c3ccc(-c4cnc([C@@H]5CCCN5C(=O)Cc5cccnc5)[nH]4)cc3C)cc2)[nH]1)c1ccccc1 [Example 127, methyl ((1R)-2-((2S)-2-(5-(2′-methyl-4′-(2-((2S)-1-(3-pyridinylacetyl)-2-pyrrolidinyl)-1H-imidazol-5-yl)-4-biphenylyl)-1H-imidazol-2-yl)-1-pyrrolidinyl)-2-oxo-1-phenylethyl)carbamate]
[1]
  EC50: 0.001 to 0.999 nM

## COC(=O)N[C@@H](C(=O)N1CCC[C@H]1c1ncc(-c2ccc(-c3ccc(-c4cnc([C@@H]5CCCN5C(=O)[C@@H]5CCCO5)[nH]4)cc3C)cc2)[nH]1)c1ccccc1 [Example 128, methyl ((1R)-2-((2S)-2-(5-(2′-methyl-4′-(2-((2S)-1-((2S)-tetrahydro-2-furanylcarbonyl)-2-pyrrolidinyl)-1H-imidazol-5-yl)-4-biphenylyl)-1H-imidazol-2-yl)-1-pyrrolidinyl)-2-oxo-1-phenylethyl)carbamate]
[1]
  EC50: 0.001 to 0.999 nM

## CN(C)[C@@H](C(=O)N1CCC[C@H]1c1ncc(-c2ccc(-c3ccc(-c4cnc([C@@H]5CCCN5C(=O)[C@@H](c5ccccc5)N(C)C)[nH]4)cc3C(F)(F)F)cc2)[nH]1)c1ccccc1 [Example 130, (1R,1′R)-2,2′-((2-(trifluoromethyl)-4,4′-biphenyldiyl)bis(1H-imidazole-5,2-diyl(2S)-2,1-pyrrolidinediyl))bis(N,N-dimethyl-2-oxo-1-phenylethanamine)]
[1]
  EC50: 0.001 to 0.999 nM

## COC(=O)N[C@@H](C(=O)N(C)[C@@H](C)c1ncc(-c2ccc(-c3ccc(-c4cnc([C@@H]5CCCN5C(=O)[C@@H](c5ccccc5)N(C)C)[nH]4)cc3)cc2)[nH]1)c1ccccc1 [Example 131.1-1, methyl((1R)-2-(((1S)-1-(5-(4′-(2-((2S)-1-((2R)-2-(dimethylamino)-2-phenylacetyl)-2-pyrrolidinyl)-1H-imidazol-5-yl)-4-biphenylyl)-1H-imidazol-2-yl)ethyl) (methyl)amino)-2-oxo-1-phenylethyl)carbamate]
[1]
  EC50: 0.001 to 0.999 nM

## COC(=O)N[C@@H](C(=O)N(C)[C@@H](C)c1ncc(-c2ccc(-c3ccc(-c4cnc([C@@H]5CCCN5C(=O)[C@@H](c5ccccc5)N5CCCCC5)[nH]4)cc3)cc2)[nH]1)c1ccccc1 [Example 131.1-2, methyl((1R)-2-(methyl((1S)-1-(5-(4′-(2-((2S)-1-((2R)-2-phenyl-2-(1-piperidinyl)acetyl)-2-pyrrolidinyl)-1H-imidazol-5-yl)-4-biphenylyl)-1H-imidazol-2-yl)ethyl)amino)-2-oxo-1-phenylethyl)carbamate]
[1]
  EC50: 0.001 to 0.999 nM

## CN(C)[C@@H](C(=O)N1CCC[C@H]1c1ncc(-c2ccc(-c3ccc(-c4cnc([C@@H]5CCCN5C(=O)[C@@H](c5ccccc5)N(C)C)[nH]4)cn3)cc2)[nH]1)c1ccccc1 [Example 132, (1R)-2-((2S)-2-(5-(6-(4-(2-((2S)-1-((2R)-2-(dimethylamino)-2-phenylacetyl)-2-pyrrolidinyl)-1H-imidazol-5-yl)phenyl)-3-pyridinyl)-1H-imidazol-2-yl)-1-pyrrolidinyl)-N,N-dimethyl-2-oxo-1-phenylethanamine]
[1]
  EC50: 0.001 to 0.999 nM

## O=C([C@H](O)c1ccccc1)N1CCC[C@H]1c1ncc(-c2ccc(-c3ccc(-c4cnc([C@@H]5CCCN5C(=O)[C@H](O)c5ccccc5)[nH]4)cn3)cc2)[nH]1 [Example 133, (1R)-2-((2S)-2-(5-(6-(4-(2-((2S)-1-((2R)-2-hydroxy-2-phenylacetyl)-2-pyrrolidinyl)-1H-imidazol-5-yl)phenyl)-3-pyridinyl)-1H-imidazol-2-yl)-1-pyrrolidinyl)-2-oxo-1-phenylethanol]
[1]
  EC50: 1 to 99 nM
